This passage reports Ki results from publication PMC4629031, “Evaluation of the Inhibitory Effects of Bavachinin and Bavachin on Human Monoamine Oxidases A and B” (Evidence-based Complementary and Alternative Medicine : eCAM, 2015).

Test [1] has as its target T1, human monoamine oxidase A (hMAO-A) (Homo sapiens, UniProt P21397).
T1 construct: gene MAOA
T1 sequence (P21397 1-527): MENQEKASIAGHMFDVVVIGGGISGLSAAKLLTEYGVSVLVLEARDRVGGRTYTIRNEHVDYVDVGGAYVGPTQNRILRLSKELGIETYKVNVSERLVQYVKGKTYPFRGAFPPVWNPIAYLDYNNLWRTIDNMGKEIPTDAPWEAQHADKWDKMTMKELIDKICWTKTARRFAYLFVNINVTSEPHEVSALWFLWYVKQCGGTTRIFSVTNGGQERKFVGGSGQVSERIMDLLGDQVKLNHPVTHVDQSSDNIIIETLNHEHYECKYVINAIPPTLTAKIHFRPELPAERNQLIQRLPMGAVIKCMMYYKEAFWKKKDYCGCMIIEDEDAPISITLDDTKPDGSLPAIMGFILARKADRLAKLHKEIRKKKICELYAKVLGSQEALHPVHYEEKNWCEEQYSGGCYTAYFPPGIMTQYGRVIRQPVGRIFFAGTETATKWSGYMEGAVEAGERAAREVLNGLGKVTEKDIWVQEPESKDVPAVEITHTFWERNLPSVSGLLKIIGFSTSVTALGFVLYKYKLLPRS
The test is described as follows: MAO-Glo luminescent assay with recombinant enzyme; Michaelis-Menten/Lineweaver-Burk kinetics (IC50 […]). It counts as biochemical.

In test [2] the target is T2, human monoamine oxidase B (hMAO-B) (Homo sapiens, UniProt P27338).
T2 construct: gene MAOB
T2 sequence (P27338 2-520): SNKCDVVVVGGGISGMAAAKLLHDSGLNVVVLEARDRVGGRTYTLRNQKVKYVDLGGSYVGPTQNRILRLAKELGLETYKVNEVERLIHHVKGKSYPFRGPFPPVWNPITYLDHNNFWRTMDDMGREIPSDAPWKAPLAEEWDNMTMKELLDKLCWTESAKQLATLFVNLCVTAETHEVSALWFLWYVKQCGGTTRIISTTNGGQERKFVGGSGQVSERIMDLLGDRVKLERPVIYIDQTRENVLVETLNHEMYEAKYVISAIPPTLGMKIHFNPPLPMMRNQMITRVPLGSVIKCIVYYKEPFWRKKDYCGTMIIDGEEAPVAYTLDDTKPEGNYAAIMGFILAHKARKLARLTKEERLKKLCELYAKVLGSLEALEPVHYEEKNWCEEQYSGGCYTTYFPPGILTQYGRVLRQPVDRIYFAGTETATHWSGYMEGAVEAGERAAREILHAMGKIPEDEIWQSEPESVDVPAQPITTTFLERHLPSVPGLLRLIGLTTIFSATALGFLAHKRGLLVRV
The test is described as above. It counts as biochemical.

In the case of `COc1cc2c(cc1CC=C(C)C)C(=O)C[C@@H](c1ccc(O)cc1)O2` [BNN, 4′-hydroxy-7-methoxy-6-(3-methyl-2-butenyl) flavanone], the results for the Ki in test [1] and in test [2] were 95.3 µM and 9.22 µM, respectively.

What is called Ki is the equilibrium dissociation constant of an inhibitor or competing ligand from its target.
